The values below come from publication PMC12175894 (Science Advances, 2025).

Where a chain is given by its changes, count along the chain named. A value given as a limit tells only on which side of the number the result lay.

Experiment [1] addresses T1, 5-HT1AR F112^3.28W + M92^2.60F (Homo sapiens, UniProt P08908, F112W/M92F).
T1 sequence (P08908 1-422 M92F/F112W): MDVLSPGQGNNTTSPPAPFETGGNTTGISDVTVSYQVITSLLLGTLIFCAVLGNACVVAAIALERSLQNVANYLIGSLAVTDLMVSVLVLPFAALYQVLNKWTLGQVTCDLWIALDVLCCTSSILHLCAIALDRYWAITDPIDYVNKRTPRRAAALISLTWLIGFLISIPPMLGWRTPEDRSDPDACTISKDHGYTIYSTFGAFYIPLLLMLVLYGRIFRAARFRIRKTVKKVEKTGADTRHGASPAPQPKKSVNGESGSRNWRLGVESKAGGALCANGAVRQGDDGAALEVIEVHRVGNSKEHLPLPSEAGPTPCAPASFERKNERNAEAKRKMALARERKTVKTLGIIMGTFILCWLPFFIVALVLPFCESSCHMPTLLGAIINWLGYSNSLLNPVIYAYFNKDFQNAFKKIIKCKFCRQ
The experiment in a line: Radioligand competition, displacement of [3H]WAY100635. The class given is binding. The following applies: 5-HT1AR F112W + M92F; HEK 293T membranes; read-out: Ki [nM ± SEM]. (In general: Displacement assays read how much labelled ligand stays bound in the presence of the test substance.)

In another experiment the target is T2, 5-HT1AR F112^3.28W (Homo sapiens, UniProt P08908, F112W).
T2 sequence (P08908 1-422 F112W): T1 sequence (P08908 1-422 M92F/F112W) with F92M
The experiment in a line: GloSensor cAMP accumulation in HEK293AΔGi/o. The class given is cell-based. The following applies: read-out: Emax [% ± SEM], cAMP accumulation.

For experiment [2], the target named is T3, 5-HT1AR (Homo sapiens, UniProt P08908).
T3 sequence (P08908 1-422): T1 sequence (P08908 1-422 M92F/F112W) with F92M, W112F
The experiment can be described thus: β-arrestin 1 recruitment, enhanced bystander BRET in HEK293T with GRK2. The following applies: HEK-293T, read-out: Emax, β-arrestin 1 recruitment.

The target of experiment [3] is T3, 5-HT1AR. Type of experiment: cell-based. More on the design: host or cells: HEK293T, HEK293A, HEK293AΔGs, HEK293AΔGi/o, HEK293AΔARRB1/B2. The following applies: HEK293AΔGi/o, GloSensor.

Usually Ki stands for the dissociation constant of the complex between target and ligand, obtained from inhibition or displacement. A word on the Emax: it is the greatest response seen or fitted, relative to the assay's reference. In general, IC50 refers to the concentration at which inhibition is half-maximal. Low readings indicate greater potency, high ones weaker potency. With `COc1ccccc1OCCNCCCOc1ccc2c(c1)NC(=O)CO2` [ST171], in experiment [1], the Ki turned out to be 0.044 nM. In addition, the Emax on 5-HT1AR F112^3.28W and at 5-HT1AR [2] was less than 5% throughout. This molecule yielded an IC50 against 5-HT1AR [3] of 3.9 ± 0.8 nM.
